These results are taken from publication PMC9756341 (Journal of the American Chemical Society, 2022).

The star is where a group is joined. ACC = NC(=O)Cc1cc(=O)oc2cc(N*)ccc12; AMC = Cc1cc(=O)oc2cc(N*)ccc12; Boc = CC(C)(C)OC(=O)*

Assay [1] addresses T1, KLK8 (Homo sapiens, UniProt O60259).
T1 construct: Active recombinant FGFBP1 (Code 1593-FB), HSPG2 (Code 2364-ER), uPA (Code 1310-SE), tPA (Code 7449-SE) and KLK8 (Code 2025-SE) were obtained from BioTechne; purchased BioTechne 2025-SE
T1 sequence (O60259 33-260): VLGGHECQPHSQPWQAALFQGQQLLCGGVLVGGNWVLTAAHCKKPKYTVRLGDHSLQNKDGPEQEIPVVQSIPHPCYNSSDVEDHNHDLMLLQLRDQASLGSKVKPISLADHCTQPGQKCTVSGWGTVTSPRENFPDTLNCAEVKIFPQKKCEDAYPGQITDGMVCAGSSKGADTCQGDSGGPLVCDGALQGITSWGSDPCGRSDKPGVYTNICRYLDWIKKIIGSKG
Kind of assay: Enzyme kinetics to calculate KM, KLK8. The note with it: fluorogenic substrate, KLK8 1 nM, 2% DMSO, room temperature, 30 min, Michaelis-Menten model, triplicates. The assay is classed as biochemical. The procedure:
(§1) Reagents were obtained from VWR, Sigma Aldrich, Sartorius, Fluorochem, AGTC, Novabiochem, TCI, Alfa Aesar, Iris Biotech, Thermofisher and Bachem. […]
(§2) (Code 7449-SE) and KLK8 (Code 2025-SE) were obtained from BioTechne. KLK6 was obtained from the group of Aubry Miller (DKFZ) and KLK7 was obtained from the group of Judith Clements (QUT).
(§3) The manufacturer’s recommended buffers were used with uPA and tPA but not KLK8. […]
(§4) Fluorescence measurements were measured using an Envision plate reader. Fluorescence data was processed using Graphpad Prism 8. […]
(§5) 2-chlorotrityl chloride resin. […]
(§6) 380nm/440nm. The data was analysed using Graphpad Prism 8. The initial slopes of each plot were calculated and presented in a bar chart, which represents the substrate specificity of the KLK. Error bars represent the standard deviation between the three replicates.
(§7) Enzyme kinetics to calculate KM. Purified fluorogenic substrates were measured in triplicates. […]
(§8) temperature, fluorescence was read once every 30 s for 30 min from an Envision plate reader at excitation/emission wavelengths of 380nm/440nm. The data was analysed with Graphpad Prism 8, using the Michaelis-Menten model.
(§9) Enzyme kinetics to calculate kobs/I. All ABPs and inhibitors were measured in triplicates. […]
(§10) using a pseudo first order kinetics model. The observed rate of inhibition (kobs) was calculated by plotting a one-phase association. […]

Assay [2] deals with endogenous tPA and uPA. Description: Competition labelling in Capan-2 conditioned media (NeutrAvidin-HRP blot). Conditions: 2 h preincubation then bABP 17 1 h, concentrations as high as 40 μM. The source says:
(§11) Figure 3 ABP validation. […] Pulldown lanes show enriched proteins after streptavidin binding.

For assay [3], the system named is KLK6. Kind of assay: Enzyme kinetics to calculate kobs/I, KLK6. The assay is classed as biochemical, human. The note with it: KLK6 1.5 nM, fluorogenic substrate 22 5 µM, 50 mM Tris 150 mM NaCl 1 mM EDTA 0.05% Tween20 pH 7.5, room temperature, read every 30 s for 30 min, ex/em 380/440 nm, pseudo first order kinetics, corrected by (1 + [S]/KM), triplicates.
Assay [4] deals with T2, KLK7 (Homo sapiens, UniProt P49862).
T2 construct: gift from the group of Judith Clements (QUT)
T2 sequence (P49862 30-253): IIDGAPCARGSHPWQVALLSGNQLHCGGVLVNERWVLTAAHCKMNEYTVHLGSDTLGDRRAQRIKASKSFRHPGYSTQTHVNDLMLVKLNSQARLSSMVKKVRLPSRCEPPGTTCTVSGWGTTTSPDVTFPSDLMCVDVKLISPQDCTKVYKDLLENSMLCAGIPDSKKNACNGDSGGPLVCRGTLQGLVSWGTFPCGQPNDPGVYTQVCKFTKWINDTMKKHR
Description: Enzyme kinetics to calculate KM, KLK7. The format is biochemical. The note with it: fluorogenic substrate, KLK7 34 nM, 2% DMSO, room temperature, 30 min, Michaelis-Menten model, triplicates. The procedure: as §1, §2, §3, §4, §5, §6, §7, §8, §9, §10

The target in assay [5] is T3, tissue plasminogen activator (tPA) (Homo sapiens, UniProt P00750).
T3 construct: purchased BioTechne 7449-SE
T3 sequence (P00750 36-562): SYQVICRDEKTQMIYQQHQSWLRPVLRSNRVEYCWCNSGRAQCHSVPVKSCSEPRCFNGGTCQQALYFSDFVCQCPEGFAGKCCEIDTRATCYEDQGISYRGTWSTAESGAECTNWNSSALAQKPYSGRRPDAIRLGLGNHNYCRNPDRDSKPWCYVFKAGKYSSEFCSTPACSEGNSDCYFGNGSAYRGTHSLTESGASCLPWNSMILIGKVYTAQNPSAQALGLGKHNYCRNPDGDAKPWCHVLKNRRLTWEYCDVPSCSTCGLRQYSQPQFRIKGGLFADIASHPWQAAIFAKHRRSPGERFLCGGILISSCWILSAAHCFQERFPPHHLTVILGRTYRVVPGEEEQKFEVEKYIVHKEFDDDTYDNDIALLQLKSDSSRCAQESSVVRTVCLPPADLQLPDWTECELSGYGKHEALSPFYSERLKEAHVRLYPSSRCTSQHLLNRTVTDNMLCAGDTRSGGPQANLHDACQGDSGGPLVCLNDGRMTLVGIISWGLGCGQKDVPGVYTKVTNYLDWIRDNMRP
Kind of assay: Enzyme kinetics to calculate kobs/I, tPA. The format is biochemical. Conditions: tPA 2 nM, Z-GGR-AMC 60 µM, manufacturer's buffer, room temperature, 30 min, pseudo first order kinetics, triplicates. The procedure: as §1, §2
(§12) The manufacturer’s recommended buffers were used with uPA and tPA but not KLK8. The KLK6 assay buffer was as follows: 50 mM Tris 150 mM NaCl, 1 mM EDTA, 0.05% Tween20, pH 7.5. The KLK7/8 buffer was as follows: 100 mM Na2PO4, 0.01% Tween20, pH 8.5. Fluorescence measurements were measured using an Envision plate reader. Fluorescence data was processed using Graphpad Prism 8. […]
as §5

For assay [6], the target named is T2, KLK7. Description: Enzyme kinetics to calculate kobs/I, KLK7. Conditions: KLK7 34 nM, substrate 24 5 µM, 100 mM Na2PO4 0.01% Tween20 pH 8.5, room temperature, 30 min, pseudo first order kinetics, triplicates. The format is biochemical. The procedure: as §1, §2, §12, §5
The subject of assay [7] is KLK6[S195A]. Description: In-gel fluorescence labelling of inactive KLK6[S195A]. The assay is classed as binding, human. Conditions: 1 h incubation.
From the text: as §11

Assay [8] deals with recombinant wild-type KLK6. Kind of assay: In-gel fluorescence labelling of recombinant wild-type KLK6. The format is binding, human. The note with it: 1 h incubation.
From the text: as §11

Assay [9] concerns the target T4, urokinase plasminogen activator (uPA) (Homo sapiens, UniProt P00749).
T4 construct: purchased BioTechne 1310-SE
Description: Enzyme kinetics to calculate kobs/I, uPA. The assay is classed as biochemical. The note with it: uPA 2 nM, Z-GGR-AMC 60 µM, manufacturer's buffer, room temperature, 30 min, pseudo first order kinetics, triplicates. The procedure: as §1, §2, §12, §5

Assay [10] has as its target T1, KLK8. Description: Enzyme kinetics to calculate kobs/I, KLK8. The format is biochemical. The note with it: KLK8 1 nM, Boc-VPR-AMC 30 µM, 100 mM Na2PO4 0.01% Tween20 pH 8.5, room temperature, 30 min, pseudo first order kinetics, triplicates.
Assay [11] has as its target T5, uPA (Homo sapiens, UniProt P00749).
T5 construct: purchased BioTechne 1310-SE
Kind of assay: Enzyme kinetics to calculate KM, uPA. The format is biochemical. Conditions: fluorogenic substrate, uPA 2 nM, 2% DMSO, room temperature, 30 min, Michaelis-Menten model, triplicates. The procedure:
Reagents were obtained from VWR, Sigma Aldrich, Sartorius, Fluorochem, AGTC, Novabiochem, TCI, Alfa Aesar, Iris Biotech, Thermofisher and Bachem. 1H and 13C NMR spectra were measured on 400 MHz Bruker AV instruments. Cells were obtained directly from the ATCC. A Waters LC-MS system (2767 sample manager, 2998 UV detector and 3100 mass detector) was used for the analysis and purification of peptides. The analytical column was an Xbridge C18 4.6 mm x 100 mm. The preparative column used to purify the peptides was an Xbridge C18 19 mm x 100 mm. For analytical LC-MS, the flow rate was 1.2 mL/min, while preparative runs were at 20 mL/min. […]
All solvents contained an additive (0.1% formic acid). High resolution mass was recorded on a Micromass Autospec Premier through the Imperial College London mass spectrometry services. […]
as §4
Peptides were prepared using standard fluorenylmethoxycarbonyl (Fmoc) solid phase peptide synthesis. Reactions were monitored using the ninhydrin test. […]
380nm/440nm. The data was analysed using Graphpad Prism 8. The initial slopes of each plot were calculated and presented in a bar chart, which represents the substrate specificity of the KLK. […]
as §7

For assay [12], the target named is T6, tPA (Homo sapiens, UniProt P00750).
T6 construct: purchased BioTechne 7449-SE
T6 sequence (P00750 36-562): as above
Kind of assay: Enzyme kinetics to calculate KM, tPA. The assay is classed as biochemical. The note with it: fluorogenic substrate, tPA 2 nM, 2% DMSO, room temperature, 30 min, Michaelis-Menten model, triplicates. The procedure: as §1, §2, §3, §4, §5, §6, §7, §8, §9, §10

The term Km denotes the substrate concentration at which the rate is half of its maximum. With Boc-Val-Pro-Arg-{AMC}, the Km in [1] is 290 µM.

Regarding Yn–DPhe–Ser(Z)–Dht–ArgPP [compound 19], the “engagement of endogenous tPA and uPA” value in assay [2] was “does not substantively engage”. Also, the “KLK6 kobs/I” value in assay [3] is recorded as 3000 M^–1 s^–1.

Turning to “Ac-KHLF-{ACC} (SMILES CC(=O)N[C@@H](CCCCN)C(=O)N[C@@H](Cc1c[nH]cn1)C(=O)N[C@@H](CC(C)C)C(=O)N[C@@H](Cc1ccccc1)C(=O)Nc1ccc2c(CC(N)=O)cc(=O)oc2c1) [compound 24, purified fluorogenic substrate for KLK7]”, the Km in assay [4] was 56 µM.

Consider “Cy5–DPhe–Ser(Z)–Dht–ArgPP [compound 21, Cy5-tagged KLK6 ABP]”, for which, in [5], the “tPA kobs/I” value was 8 M⁻¹ s⁻¹. Also, the “KLK6 kobs/I” value in assay [3] is on record as 1000 M^–1 s^–1. Further, the “KLK7 kobs/I” value in assay [6] is 26 M⁻¹ s⁻¹. Besides, in assay [7], the “labeling of inactive KLK6[S195A] mutant” value is given as “not labeled”. Further, in assay [8], the “labeling of active recombinant KLK6” value is listed as “dose-dependent labeling”. In addition, the “uPA kobs/I” value in assay [9] is 0 M⁻¹ s⁻¹. In [10], the “KLK8 kobs/I” value is on record as 40 M^–1 s^–1.

In the case of Z-GGR-AMC, the Km in [11] was 190 µM; in [12] it was 1200 µM.
